The test system of assay [1] is PDAC1 adherent 2D monolayers. Description: Viability curves on PDAC1 adherent 2D monolayers. Format: cell-based. As to conditions: Homo sapiens, 30 h. The source says:
The PDAC patient-derived xenograft (PDX) Panc354 (referred to hereafter as PDAC3) was obtained from Dr. Manuel Hidalgo under a Material Transfer Agreement with the Spanish National Cancer Centre (CNIO), Madrid, Spain (Reference no. I409181220BSMH). PDAC1, PDAC2 and PDAC4 PDXs were established from primary patient resected tumors. Samples were provided by the BioBank Hospital Ramón y Cajal-IRYCIS (PT13/0010/0002), integrated in the Spanish National Biobanks Network and they were processed following standard operating procedures with the appropriate approval of the Ethical and Scientific Committees (Control no. No. Control: DE-BIOB-73 AC65, RG.BIOB-96 REV, and CI-BIOB-08-10-01 rev), with informed consent and according to Declaration of Helsinki principles. Primary patient tumors were subcutaneously implanted in immunocompromised female 6- to 8-week-old NU-Foxn1nu nude mice (Envigo, Barcelona, Spain) and subsequently passage in vivo to establish PDX PDAC1, PDAC2 and PDAC4. Primary PDX-derived in vitro cultures were established as previously detailed. […]
Murine embryonic stem cells (mESCs) were plated at 20,000 cells per well in gelatinized 96 well plates. […] Trypsinized cells were counted and 20,000 cells were plated in wells of standard tissue culture-treated plates (Corning) and treated the following day with indicated compounds and concentrations.

A further assay addresses T1, EPHA2 (Homo sapiens, UniProt P29317).
T1 construct: purchased DiscoveRx KINOMEscan
Description: KINOMEscan. The assay is classed as binding. As to conditions: read-out: % Ctrl.

The next assay addresses T2, PRKCE (Homo sapiens, UniProt Q02156).
T2 construct: purchased DiscoveRx KINOMEscan
Briefly: KINOMEscan. As to conditions: read-out: % Ctrl. The assay is classed as binding.

The target in the next assay is T3, FAK (Homo sapiens, UniProt Q05397).
T3 construct: purchased DiscoveRx KINOMEscan
T3 sequence (Q05397 whole entry): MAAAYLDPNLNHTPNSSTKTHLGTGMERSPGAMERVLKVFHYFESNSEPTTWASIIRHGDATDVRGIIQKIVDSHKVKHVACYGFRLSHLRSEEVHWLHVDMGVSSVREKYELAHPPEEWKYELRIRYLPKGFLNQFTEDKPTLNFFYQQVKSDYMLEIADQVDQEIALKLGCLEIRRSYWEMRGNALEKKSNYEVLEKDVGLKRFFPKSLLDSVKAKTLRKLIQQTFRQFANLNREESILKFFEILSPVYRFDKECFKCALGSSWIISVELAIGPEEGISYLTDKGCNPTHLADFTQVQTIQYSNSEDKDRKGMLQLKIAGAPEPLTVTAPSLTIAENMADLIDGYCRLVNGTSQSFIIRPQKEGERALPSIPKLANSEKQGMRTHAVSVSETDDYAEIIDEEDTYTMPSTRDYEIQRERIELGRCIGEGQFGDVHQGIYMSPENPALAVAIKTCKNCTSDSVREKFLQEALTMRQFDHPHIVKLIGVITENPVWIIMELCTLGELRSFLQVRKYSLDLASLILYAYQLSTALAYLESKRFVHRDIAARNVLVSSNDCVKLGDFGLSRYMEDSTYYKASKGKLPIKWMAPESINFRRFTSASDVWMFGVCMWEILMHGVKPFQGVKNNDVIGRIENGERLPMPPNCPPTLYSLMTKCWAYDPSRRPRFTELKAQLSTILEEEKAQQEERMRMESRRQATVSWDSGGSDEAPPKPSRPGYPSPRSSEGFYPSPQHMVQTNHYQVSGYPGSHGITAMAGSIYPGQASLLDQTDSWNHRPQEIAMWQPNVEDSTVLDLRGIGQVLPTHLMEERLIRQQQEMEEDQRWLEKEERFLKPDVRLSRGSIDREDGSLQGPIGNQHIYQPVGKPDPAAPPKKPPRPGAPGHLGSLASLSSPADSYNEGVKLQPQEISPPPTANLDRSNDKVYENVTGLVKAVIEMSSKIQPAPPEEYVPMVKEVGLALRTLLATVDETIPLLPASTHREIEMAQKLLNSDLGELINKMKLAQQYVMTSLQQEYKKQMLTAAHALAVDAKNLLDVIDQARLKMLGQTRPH
Description: KINOMEscan. The assay is classed as binding. Particulars: read-out: % Ctrl.

The next assay concerns the target T4, INSR (Homo sapiens, UniProt P06213).
T4 construct: purchased DiscoveRx KINOMEscan
Briefly: KINOMEscan. Format: binding. Particulars: read-out: % Ctrl.

For a further assay, the target named is T5, JNK1 (Homo sapiens, UniProt P45983).
T5 construct: purchased DiscoveRx KINOMEscan
Briefly: KINOMEscan. Format: binding. Particulars: read-out: % Ctrl.

Another assay addresses T6, PAK4 (Homo sapiens, UniProt O96013).
T6 construct: purchased DiscoveRx KINOMEscan
Briefly: KINOMEscan. Format: binding. Particulars: read-out: % Ctrl.

The target in another assay is T7, TBK1 (Homo sapiens, UniProt Q9UHD2).
T7 construct: purchased DiscoveRx KINOMEscan
Description: KINOMEscan. As to conditions: read-out: % Ctrl. Format: binding.

A further assay concerns the target T8, RPS6KA5(KD1-N-t.) (Homo sapiens, UniProt O75582).
T8 construct: RPS6KA5(KD1-N-t.); purchased DiscoveRx KINOMEscan
Briefly: KINOMEscan. The assay is classed as binding. Particulars: read-out: % Ctrl.

The target in the next assay is T9, CSNK2A1 (Homo sapiens, UniProt P68400).
T9 construct: purchased DiscoveRx KINOMEscan
Description: KINOMEscan. The assay is classed as binding. Particulars: read-out: % Ctrl.

The next assay has as its target T10, AKT2 (Homo sapiens, UniProt P31751).
T10 construct: purchased DiscoveRx KINOMEscan
Briefly: KINOMEscan. The assay is classed as binding. Particulars: read-out: % Ctrl.

The target of a further assay is T11, CAMK2B (Homo sapiens, UniProt Q13554).
T11 construct: purchased DiscoveRx KINOMEscan
T11 sequence (Q13554 whole entry): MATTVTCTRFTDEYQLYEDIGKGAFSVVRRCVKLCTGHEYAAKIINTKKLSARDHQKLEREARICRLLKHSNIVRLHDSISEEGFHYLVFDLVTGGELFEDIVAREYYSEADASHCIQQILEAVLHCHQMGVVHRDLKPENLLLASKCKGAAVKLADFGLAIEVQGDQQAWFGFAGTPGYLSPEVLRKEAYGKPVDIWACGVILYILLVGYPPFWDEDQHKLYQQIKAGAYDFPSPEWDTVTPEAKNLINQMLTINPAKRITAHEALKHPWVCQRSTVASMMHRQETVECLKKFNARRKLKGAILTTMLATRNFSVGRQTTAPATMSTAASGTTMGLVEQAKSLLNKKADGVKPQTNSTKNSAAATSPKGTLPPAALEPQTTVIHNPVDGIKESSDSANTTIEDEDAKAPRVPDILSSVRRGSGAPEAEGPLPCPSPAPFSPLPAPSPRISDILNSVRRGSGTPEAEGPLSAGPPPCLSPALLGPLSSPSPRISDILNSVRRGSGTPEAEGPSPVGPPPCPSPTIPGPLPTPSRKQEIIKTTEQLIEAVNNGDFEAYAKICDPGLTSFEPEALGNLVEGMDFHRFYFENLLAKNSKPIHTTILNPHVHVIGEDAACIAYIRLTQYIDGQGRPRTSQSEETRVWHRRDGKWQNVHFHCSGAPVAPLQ
Briefly: KINOMEscan. Format: binding. Particulars: read-out: % Ctrl.

The next assay deals with T12, KIT-autoi. (Homo sapiens, UniProt P10721).
T12 construct: purchased DiscoveRx KINOMEscan
T12 sequence (P10721 26-976): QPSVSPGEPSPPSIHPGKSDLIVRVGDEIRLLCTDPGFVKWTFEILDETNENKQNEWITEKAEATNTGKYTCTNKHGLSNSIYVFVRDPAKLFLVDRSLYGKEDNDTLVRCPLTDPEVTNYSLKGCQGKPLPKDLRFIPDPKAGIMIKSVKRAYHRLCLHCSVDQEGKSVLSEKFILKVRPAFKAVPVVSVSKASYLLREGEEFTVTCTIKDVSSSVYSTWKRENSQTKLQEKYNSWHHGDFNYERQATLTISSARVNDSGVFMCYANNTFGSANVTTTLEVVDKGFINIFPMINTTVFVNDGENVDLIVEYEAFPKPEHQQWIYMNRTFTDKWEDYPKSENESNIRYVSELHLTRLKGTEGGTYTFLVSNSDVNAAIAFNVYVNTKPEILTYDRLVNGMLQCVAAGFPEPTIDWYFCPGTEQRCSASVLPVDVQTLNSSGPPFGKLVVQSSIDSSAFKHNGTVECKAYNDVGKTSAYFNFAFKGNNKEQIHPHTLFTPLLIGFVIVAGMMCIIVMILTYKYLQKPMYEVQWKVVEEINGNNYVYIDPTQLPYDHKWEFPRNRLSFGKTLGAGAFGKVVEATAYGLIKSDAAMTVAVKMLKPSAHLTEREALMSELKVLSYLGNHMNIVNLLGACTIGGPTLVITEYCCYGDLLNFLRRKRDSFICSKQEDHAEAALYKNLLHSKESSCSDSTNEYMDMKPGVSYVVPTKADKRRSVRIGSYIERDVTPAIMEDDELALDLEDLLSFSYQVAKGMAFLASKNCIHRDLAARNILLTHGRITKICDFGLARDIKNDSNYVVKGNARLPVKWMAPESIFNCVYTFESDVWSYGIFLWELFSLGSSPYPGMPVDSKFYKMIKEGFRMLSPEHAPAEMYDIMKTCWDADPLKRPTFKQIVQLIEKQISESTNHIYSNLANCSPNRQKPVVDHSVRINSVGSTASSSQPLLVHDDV
Briefly: KINOMEscan. The assay is classed as binding. Particulars: read-out: % Ctrl.

Another assay concerns the target T13, KIT(D816H) (Homo sapiens, UniProt P10721, D816H).
T13 construct: purchased DiscoveRx KINOMEscan
Briefly: KINOMEscan. Format: binding. Particulars: read-out: % Ctrl.

A further assay deals with T14, DDR2 (Homo sapiens, UniProt Q16832).
T14 construct: purchased DiscoveRx KINOMEscan
T14 sequence (Q16832 22-855): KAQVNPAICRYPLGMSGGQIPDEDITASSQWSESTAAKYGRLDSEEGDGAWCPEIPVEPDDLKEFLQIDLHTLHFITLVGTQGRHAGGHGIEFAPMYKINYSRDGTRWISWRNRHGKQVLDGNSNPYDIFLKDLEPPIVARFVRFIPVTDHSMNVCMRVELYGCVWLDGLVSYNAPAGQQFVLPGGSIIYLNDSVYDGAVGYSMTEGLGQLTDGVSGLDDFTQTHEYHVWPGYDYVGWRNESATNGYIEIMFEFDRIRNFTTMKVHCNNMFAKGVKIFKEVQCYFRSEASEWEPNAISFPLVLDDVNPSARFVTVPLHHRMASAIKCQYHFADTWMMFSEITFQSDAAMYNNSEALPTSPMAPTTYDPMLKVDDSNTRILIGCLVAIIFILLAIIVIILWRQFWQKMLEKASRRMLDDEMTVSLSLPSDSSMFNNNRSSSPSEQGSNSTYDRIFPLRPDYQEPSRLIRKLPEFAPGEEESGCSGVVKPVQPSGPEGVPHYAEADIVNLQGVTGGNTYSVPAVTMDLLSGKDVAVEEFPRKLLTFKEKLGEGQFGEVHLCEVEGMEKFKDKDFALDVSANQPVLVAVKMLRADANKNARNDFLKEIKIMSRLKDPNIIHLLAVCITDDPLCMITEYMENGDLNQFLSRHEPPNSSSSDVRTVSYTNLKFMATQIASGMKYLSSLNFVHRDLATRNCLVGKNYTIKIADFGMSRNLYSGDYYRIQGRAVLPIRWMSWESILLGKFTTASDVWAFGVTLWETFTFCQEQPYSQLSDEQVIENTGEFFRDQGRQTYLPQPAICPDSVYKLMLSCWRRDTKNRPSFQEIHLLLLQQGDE
Briefly: KINOMEscan. As to conditions: read-out: % Ctrl. The assay is classed as binding.

For another assay, the target named is T15, BMPR1A (Homo sapiens, UniProt P36894).
T15 construct: purchased DiscoveRx KINOMEscan
T15 sequence (P36894 24-532): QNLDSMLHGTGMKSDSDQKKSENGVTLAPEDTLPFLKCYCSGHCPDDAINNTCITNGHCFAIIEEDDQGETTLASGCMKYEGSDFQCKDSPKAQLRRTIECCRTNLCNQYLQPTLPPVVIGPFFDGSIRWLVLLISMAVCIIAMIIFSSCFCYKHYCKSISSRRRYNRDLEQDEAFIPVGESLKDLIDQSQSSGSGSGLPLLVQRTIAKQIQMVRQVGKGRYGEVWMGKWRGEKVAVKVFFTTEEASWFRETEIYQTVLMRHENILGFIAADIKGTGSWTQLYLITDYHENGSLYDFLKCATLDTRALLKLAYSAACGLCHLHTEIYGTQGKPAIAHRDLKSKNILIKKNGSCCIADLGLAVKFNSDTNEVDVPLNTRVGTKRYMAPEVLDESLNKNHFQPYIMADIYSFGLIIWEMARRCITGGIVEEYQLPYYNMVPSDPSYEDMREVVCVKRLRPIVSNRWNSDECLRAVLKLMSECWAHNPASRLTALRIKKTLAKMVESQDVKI
Briefly: KINOMEscan. The assay is classed as binding. Particulars: read-out: % Ctrl.

The target in another assay is T16, CTK (Homo sapiens, UniProt P42679).
T16 construct: purchased DiscoveRx KINOMEscan
T16 sequence (P42679 whole entry): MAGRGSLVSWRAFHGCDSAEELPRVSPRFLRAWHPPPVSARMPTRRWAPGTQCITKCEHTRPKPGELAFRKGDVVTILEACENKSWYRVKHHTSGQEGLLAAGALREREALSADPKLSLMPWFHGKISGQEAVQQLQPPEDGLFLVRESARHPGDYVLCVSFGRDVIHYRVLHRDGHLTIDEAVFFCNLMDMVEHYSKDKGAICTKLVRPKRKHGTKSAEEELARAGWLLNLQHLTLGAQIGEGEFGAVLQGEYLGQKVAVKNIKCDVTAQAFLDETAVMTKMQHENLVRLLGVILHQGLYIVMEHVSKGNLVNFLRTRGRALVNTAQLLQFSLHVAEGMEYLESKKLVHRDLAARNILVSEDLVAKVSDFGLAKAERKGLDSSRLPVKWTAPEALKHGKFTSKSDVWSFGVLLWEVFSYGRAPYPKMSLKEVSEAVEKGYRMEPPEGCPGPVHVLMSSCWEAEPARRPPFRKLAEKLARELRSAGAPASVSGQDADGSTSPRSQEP
Briefly: KINOMEscan. Format: binding. As to conditions: read-out: % Ctrl.

T8 sequence (O75582 1-387 limits assumed): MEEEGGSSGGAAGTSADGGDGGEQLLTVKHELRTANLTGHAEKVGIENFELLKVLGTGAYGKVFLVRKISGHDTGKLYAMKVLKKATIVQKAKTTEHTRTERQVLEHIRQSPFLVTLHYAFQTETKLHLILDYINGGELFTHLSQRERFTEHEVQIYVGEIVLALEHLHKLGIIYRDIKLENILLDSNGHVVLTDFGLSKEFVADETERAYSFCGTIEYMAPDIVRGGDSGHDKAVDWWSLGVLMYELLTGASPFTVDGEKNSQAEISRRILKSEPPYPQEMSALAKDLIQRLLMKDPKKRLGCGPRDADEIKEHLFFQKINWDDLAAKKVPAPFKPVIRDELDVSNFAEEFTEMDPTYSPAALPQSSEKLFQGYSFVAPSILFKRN
T13 sequence (P10721 26-976 D816H): as the sequence (P10721 26-976) above, with D791H counted along it

Consider `COc1nc2ccc(NCC3CCN(C)CC3)nn2c1C(=O)Nc1cccc(OC(F)(F)F)c1` [Cpd 1], for which the EC50 in assay [1] is approximately 3.56 µM.
In the case of `CN1CCC(CNc2ccc3ncc(C(=O)Nc4cccc(OC(F)(F)F)c4)n3n2)CC1` [Cpd 2], the remaining binding at 1 µM at EPHA2 came out at 100%; on PRKCE it was 70%; at FAK, 100%; on INSR, 100%; on JNK1 it was 92%; on PAK4, 100%. The remaining binding at 1 µM on TBK1 amounted to 100%; at RPS6KA5(KD1-N-t.), 100%; at CSNK2A1, 98%; at AKT2, 100%; at CAMK2B, 92%; on KIT-autoi. it was 100%. In addition, the remaining binding at 1 µM at KIT(D816H) was 91%; at DDR2, 89%; at BMPR1A it was 97%; on CTK it was 70%.
